Where “and” joins values, the source holds several entries; their conditions need not be identical. Equal entries are not always repeated.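 Cells were grown in 96-well plates and exposed to each compound for 48 hours at five concentrations; endpoints were interpolated linearly between bracketing concentrations, or set to the highest concentration if not reached. GI50 = concentration required for 50% inhibition of growth. Definition used: TGI = concentration required for complete inhibition of growth.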
System: MDA-MB-468 breast
Experiment: NCI tumour cell line growth inhibition, 48 h

Compound | GI50 | TGI
Cc1c2cccnc2c(C)c2c1c1cc(CO)ccc1n2C | 183 nM | 561 nM
COCCOc1cc(F)c2c(Nc3ccc(NC(=O)Cn4cc(C(C)C)nn4)cc3)ncnc2c1 | 57100 nM | > 100000 nM
C[C@H]1c2cccc(O)c2C(O)=C2C(=O)[C@]3(O)C(O)=C(C(N)=O)C(=O)[C@@H](N(C)C)[C@@H]3[C@@H](O)[C@@H]21 | 2050 nM | 6440 nM
NC(=NCCCOc1ccc(Cl)cc1)Nc1ccc(C(F)(F)F)cc1 | 1630 nM | 3610 nM
O=S(=O)(Nc1cc(F)cc(Cl)c1)c1ccc(-c2cnc(C3CC3)o2)cc1 | 491 nM | 6780 nM
COc1ccc(N(C)c2ncnc3occ(C)c23)cc1 | < 10 nM | 15400 nM
COc1ccc(C(=O)c2cc(OC)c(C)c(OC)c2)cc1OC(=O)CCl | 2390 nM | 21600 nM
COC(=O)/C=C/c1cc(O)c2oc(-c3ccc(O)c(O)c3)c(C(=O)OC)c2c1 | 1820 nM | 12900 nM
CCN1CCN(c2ccc(Nc3cc(N(C)C(=O)Nc4c(Cl)c(OC)cc(OC)c4Cl)ncn3)cc2)CC1 | 3010 nM | 11700 nM
CC1OC2CC(=O)OC2C2=C1C(=O)c1c(O)cccc1C2=O (stereo not drawn) | 20.8 nM | 52.5 nM
O=C1NC(=Nc2ccccc2)S/C1=C\c1ccc2ncccc2c1 | 2060 nM | > 25000 nM
COc1ccc2c(c1)C(C)Cc1c(Cl)ncnc1N2C (stereo not drawn) | 276 nM | 804 nM
COc1ncnc(C2CC2)c1-c1ncc2cnn(Cc3ccc(-c4nc(C(F)(F)F)cn4C(C)C)cc3)c2n1 | 3770 nM | 38300 nM
CC/C(=C(/c1ccc(OCCN(C)C)cc1)c1ccc(OC(=O)CCCCC(=O)c2c(C)[nH]c(/C=C3\N=C(c4ccc[nH]4)C=C3OC)c2C)cc1)c1ccccc1 | 2470 nM | 14700 nM
COc1ccc(C2CC(c3cccc(Nc4ccncc4)c3)=NN2c2cc(Cl)cc(Cl)c2)cc1 (stereo not drawn) | 1630 nM | 3290 nM
C=C(C)[C@@]12OC3(/C=C/C=C/CCCCC)O[C@@H]1[C@@H]1[C@@H]4O[C@]4(CO)[C@@H](O)[C@]4(O)C(=O)C(C)=C[C@H]4[C@@]1(O3)[C@H](C)[C@H]2OC(=O)c1ccccc1 | 1370 nM | 2920 nM
COc1cc(C(=O)c2cc(C)c3[nH]c4ccc(Cl)cc4c3c2C)cc(OC)c1OC | 38.5 nM | 4840 nM
C/C(=C\CCc1ccoc1)CC/C=C(\C)CCCC1=CC(=O)OC1 | 2190 nM | 8410 nM
NCCCNc1nc2ccccc2c2c(=O)c3cc(OC(F)(F)F)ccc3sc12 | 1760 nM | 3420 nM
CC(SC(C)C(=O)N/N=C/c1cccc(Cl)c1)C(=O)N/N=C\c1cccc(Cl)c1 (stereo not drawn) | 21700 nM | 52900 nM
C=C(F)C(=O)N1CCN(c2nc(OC[C@@H]3CCCN3C)nc3c2CCN(c2cccc4cccc(Cl)c24)C3)C[C@@H]1CC#N | 1220 nM | 2580 nM
O=C(Nc1ccc(OS(=O)(=O)c2ccccc2)cc1)C12CC3CC(CC(C3)C1)C2 | 3800 nM | > 100000 nM

Compound | GI50 | TGI
O=c1n(CC2CO2)c(=O)n(CC2CO2)c(=O)n1CC1CO1 (stereo not drawn) | 2260 nM | 11300 nM
Cc1ccc2c(n1)C(=O)c1[nH]c3ccccc3c1C2=O | 510 nM | 3300 nM
Cn1cc(C2=C(c3ccc4ccccc4c3)C(=O)NC2=O)c2ccccc21 | 6240 nM | > 25000 nM
COc1cc(Nc2cn[nH]c2-c2ccc(Cl)cc2)cc(OC)c1OC | 1600 nM | 6400 nM
Cn1c(=O)c2c(nc(Nc3cc(=O)[nH]c(=O)[nH]3)n2Cc2ccccc2)n(C)c1=O | 54800 nM | > 100000 nM
CCOc1nc(-c2ccccc2)cc2c(O)c(-c3nnco3)[nH]c(=O)c12 | 1550 nM | > 25800 nM
Ic1ccc(Nc2nc3nonc3nc2Nc2ccc(I)cc2)cc1 | 174 nM | 1690 nM
CNCCCn1cc(C2=C(c3cn(C)c4ccccc34)C(=O)NC2=O)c2ccccc21 | 3590 nM | 7330 nM
CCC[CH2][Sn]([CH2]CCC)([CH2]CCC)[O]C(=O)CC | 127 nM | 258 nM
O=[N+]([O-])c1ccc(C=C2C(Cl)=C(Cl)C(Cl)=C2Cl)cc1 | 1700 nM | 3350 nM
C#Cc1cccc(Nc2ncnc3cc(OC)c(OCCCCCCC(=O)NO)cc23)c1 | 7.53 nM | 81.4 nM
Oc1ccc(Cl)cc1Cc1cc(Cl)cc(Cl)c1O | 2790 nM | 9410 nM
CC(C)c1ccc(Nc2ccc3c(OCCCN4CCN(C)CC4)cccc3n2)cc1 | 12300 nM | 26000 nM
Clc1ccc2c(NCCCNc3nccc(Nc4ccc(Br)cc4)n3)ccnc2c1 | 1610 nM | 3210 nM
O=C(OCc1ccc2cccc(O)c2n1)N1CCN(C(=O)c2cc3cc(F)ccc3[nH]2)CC1 | 1510 nM | 3280 nM
CC[C@]12C=CCN3CC[C@@]4(c5ccc(OC)cc5N(C)[C@H]4[C@@](O)(C(=O)OC)[C@@H]1OC(=O)CCC[P+](c1ccccc1)(c1ccccc1)c1ccccc1)[C@@H]32 | 123 nM and 217 nM | 377 nM and 653 nM
COc1cc2c(cc1OC)C(Sc1ccc(C)cc1)c1c(nc(N)c(C#N)c1N)O2 (stereo not drawn) | 1160 nM | 2500 nM
C=C(C=O)C1CCC2(C(=O)O)CCC3(C)C(CCC4C5(C)CCC(O)C(C)(C)C5CCC43C)C12 (stereo not drawn) | 3270 nM | 20600 nM
Cc1nc(N)sc1-c1ccnc(Nc2ccc(N3CCOCC3)cc2)n1 | 611 nM | > 100000 nM
CC(C)(C)C(=O)OCOP(=O)(OCOC(=O)C(C)(C)C)C1CCCN(O)C1=O (stereo not drawn) | 977 nM | 5480 nM
Cc1ccc(C(SCC(N)C(=O)O)(c2ccccc2)c2ccc(C)cc2)cc1 (stereo not drawn) | 118 nM | 533 nM
COc1cc(C2c3cc4c(cc3OC(N3CCCC3)C2C)OCO4)cc(OC)c1O (stereo not drawn) | 17500 nM | > 100000 nM

— PubChem BioAssay (NCI)
